According to ChEMBL document CHEMBL5370610, “Urotensin II Receptor Modulation with 1,3,4-Benzotriazepin-2-one Tetrapeptide Mimics” (J Med Chem, 2023):
The source made the active and inactive calls. The rule behind the calls is not given here.

Key:
[1] = molecular target: T1, Guanine nucleotide-binding protein G(q) subunit alpha (Homo sapiens, UniProt P50148); experiment: Agonist activity at RLucII-tagged Galpha-q (unknown origin) expressed in HEK293 cells co-expressing human UT/GFP10-tagged G-gamma assessed as activation of Galpha-q by BRET assay; assay type: cell-based
T1 sequence (P50148 whole entry): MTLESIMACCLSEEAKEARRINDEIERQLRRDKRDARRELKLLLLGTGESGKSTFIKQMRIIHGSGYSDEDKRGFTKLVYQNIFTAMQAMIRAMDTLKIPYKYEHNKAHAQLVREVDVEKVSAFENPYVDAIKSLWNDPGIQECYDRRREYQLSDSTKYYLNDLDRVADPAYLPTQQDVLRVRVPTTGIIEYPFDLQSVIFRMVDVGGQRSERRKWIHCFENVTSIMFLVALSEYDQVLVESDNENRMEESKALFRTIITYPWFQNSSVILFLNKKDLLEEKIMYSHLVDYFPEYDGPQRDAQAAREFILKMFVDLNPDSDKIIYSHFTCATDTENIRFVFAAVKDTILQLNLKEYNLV

HEK293 [2] = experiment: Agonist activity at RLucII-tagged Galpha-13 (unknown origin) expressed in HEK293 cells co-expressing human UT/GFP10-tagged G-gamma assessed as activation of Galpha-13 at 10^-5 M by BRET assay relative to hUII; assay type: cell-based; settings: filed as agonist, dose 1.0 10^-5M
[3] = Agonist activity at RLucII-tagged Galpha-i (unknown origin) expressed in HEK293 cells co-expressing human UT/GFP10-tagged G-gamma assessed as activation of Galpha-i by BRET assay; assay type: cell-based
[4] = molecular target: T2, Guanine nucleotide-binding protein G(q) subunit alpha (Homo sapiens) (UniProt P50148); experiment: Agonist activity at RLucII-tagged Galpha-q (unknown origin) expressed in HEK293 cells co-expressing human UT/GFP10-tagged G-gamma assessed as activation of Galpha-q at 10^-5 M by BRET assay relative to hUII; assay type: cell-based; settings: filed as agonist, dose 1.0 10^-5M
T2 sequence (whole entry): T1 sequence (P50148 whole entry)

Aorta [5] = experiment: Ex vivo modulatory effect on URP-induced contractile activity in Sprague-Dawley rat aortic ring at 10^-6 M pretreated for 30 mins followed by URP addition (reference value: 100 +/- 8 %); assay type: functional; settings: 0.5 h, dose 1 10^-6M
Aorta [6] = experiment: Ex vivo modulatory effect on hUII-induced contractile activity in Sprague-Dawley rat aortic ring (reference value: 8.37 +/- 0.08); assay type: functional, tissue-based
HEK293 [7] = experiment: Agonist activity at RLucII-tagged Galpha-i (unknown origin) expressed in HEK293 cells co-expressing human UT/GFP10-tagged G-gamma assessed as activation of Galpha-i at 10^-5 M by BRET assay relative to hUII; assay type: cell-based; settings: dose 1.0 10^-5M
Beta-arrestin-1 [8] = molecular target: T3, Beta-arrestin-1 (Homo sapiens, UniProt P49407); experiment: Agonist activity at RLucII/GFP10-tagged beta-arrestin-1 (unknown origin) recruitment expressed in HEK293 cells co-expressing human UT assessed as beta-arrestin recruitment by BRET assay; assay type: cell-based
Aorta [9] = experiment: Ex vivo modulatory effect on URP-induced contractile activity in Sprague-Dawley rat aortic ring (reference value: 8.06 +/- 0.27); assay type: functional, tissue-based
[10] = Agonist activity at RLucII-tagged Galpha-13 (unknown origin) expressed in HEK293 cells co-expressing human UT/GFP10-tagged G-gamma assessed as activation of Galpha-13 by BRET assay; assay type: cell-based
Beta-arrestin-1 [11] = molecular target: T3, Beta-arrestin-1; experiment: Agonist activity at RLucII/GFP10-tagged beta-arrestin-1 (unknown origin) expressed in HEK293 cells co-expressing human UT assessed as beta-arrestin recruitment at 10^-5 M by BRET assay relative to hUII; assay type: cell-based; settings: filed as agonist, dose 1.0 10^-5M
Aorta [12] = experiment: Ex vivo modulatory effect on hUII-induced contractile activity in Sprague-Dawley rat aortic ring at 10^-6 M pretreated for 30 mins followed by hUII addition (reference value: 100 +/- 9 %); assay type: functional; settings: 0.5 h, dose 1 10^-6M
[13] = molecular target: T2, Guanine nucleotide-binding protein G(q) subunit alpha (Homo sapiens); experiment: Antagonist activity at URP-activated RLucII-tagged Galpha-q (unknown origin) expressed in HEK293 cells co-expressing human UT/GFP10-tagged G-gamma at 10^-6 M by BRET assay (reference value: 100 +/- 4 %); assay type: cell-based; settings: filed as antagonist, dose 1.0 10^-6M
[14] = molecular target: T1, Guanine nucleotide-binding protein G(q) subunit alpha; experiment: Antagonist activity at hUII-activated RLucII-tagged Galpha-q (unknown origin) expressed in HEK293 cells co-expressing human UT/GFP10-tagged G-gamma by BRET assay (reference value: 8.26 +/- 0.09); assay type: cell-based
HEK293 [15] = experiment: Agonist activity at RLucII-tagged Galpha-i (unknown origin) expressed in HEK293 cells co-expressing human UT/GFP10-tagged G-gamma assessed as activation of Galpha-i at 10^-5 M by BRET assay; assay type: cell-based; settings: dose 1.0 10^-5M
HEK293 [16] = experiment: Antagonist activity at URP-activated RLucII-tagged Galpha-i (unknown origin) expressed in HEK293 cells co-expressing human UT/GFP10-tagged G-gamma at 10^-6 M by BRET assay (reference value: 100 +/- 7 %); assay type: cell-based; settings: filed as antagonist, dose 1.0 10^-6M
HEK293 [17] = experiment: Antagonist activity at hUII-activated RLucII-tagged Galpha-q (unknown origin) expressed in HEK293 cells co-expressing human UT/GFP10-tagged G-gamma at 10^-6 M by BRET assay (reference value: 100 +/- 4 %); assay type: cell-based; settings: filed as antagonist, dose 1.0 10^-6M
[18] = Antagonist activity at URP-activated RLucII-tagged Galpha-i (unknown origin) expressed in HEK293 cells co-expressing human UT/GFP10-tagged G-gamma by BRET assay (reference value: 7.10 +/- 0.19); assay type: cell-based
[19] = molecular target: T2, Guanine nucleotide-binding protein G(q) subunit alpha (Homo sapiens); experiment: Agonist activity at RLucII-tagged Galpha-q (unknown origin) expressed in HEK293 cells co-expressing human UT/GFP10-tagged G-gamma assessed as activation of Galpha-q at 10^-5 M by BRET assay; assay type: cell-based; settings: dose 1.0 10^-5M
[20] = molecular target: T1, Guanine nucleotide-binding protein G(q) subunit alpha; experiment: Antagonist activity at URP-activated RLucII-tagged Galpha-q (unknown origin) expressed in HEK293 cells co-expressing human UT/GFP10-tagged G-gamma by BRET assay (reference value: 7.33 +/- 0.10); assay type: cell-based
HEK293 [21] = experiment: Antagonist activity at hUII-activated RLucII-tagged Galpha-i (unknown origin) expressed in HEK293 cells co-expressing human UT/GFP10-tagged G-gamma at 10^-6 M by BRET assay (reference value: 100 +/- 5 %); assay type: cell-based; settings: filed as antagonist, dose 1.0 10^-6M
[22] = Antagonist activity at hUII-activated RLucII-tagged Galpha-i (unknown origin) expressed in HEK293 cells co-expressing human UT/GFP10-tagged G-gamma by BRET assay (reference value: 7.41 +/- 0.15); assay type: cell-based

T3 sequence (P49407 whole entry): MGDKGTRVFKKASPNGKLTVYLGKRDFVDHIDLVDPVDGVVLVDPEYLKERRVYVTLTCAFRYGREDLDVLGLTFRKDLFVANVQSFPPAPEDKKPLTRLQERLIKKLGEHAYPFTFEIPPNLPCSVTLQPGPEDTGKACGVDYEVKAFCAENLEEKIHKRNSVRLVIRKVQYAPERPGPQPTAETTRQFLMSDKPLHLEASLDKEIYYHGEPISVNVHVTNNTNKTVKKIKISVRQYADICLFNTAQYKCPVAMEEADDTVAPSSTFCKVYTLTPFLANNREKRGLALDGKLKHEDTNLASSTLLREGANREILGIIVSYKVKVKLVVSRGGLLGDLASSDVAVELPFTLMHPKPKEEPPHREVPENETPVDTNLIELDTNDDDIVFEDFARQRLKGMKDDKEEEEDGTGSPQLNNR

Structure (SMILES) | EC50 [1] [nM] | Emax (HEK293 [2]) [%] | EC50 [3] [nM] | Emax at 1 µM (Aorta [5]) [%] | EC50 (Aorta [6]) [nM] | Emax (HEK293 [7]) [%] | EC50 (Beta-arrestin-1 [8]) [nM] | EC50 (Aorta [9]) [nM] | EC50 [10] [nM] | Emax (Beta-arrestin-1 [11]) [%] | Emax at 1 µM (Aorta [12]) [%] | Emax [13] [%] | EC50 [14] [nM] | Activity (HEK293 [15]) | Emax (HEK293 [16]) [%] | Emax (HEK293 [17]) [%] | EC50 [18] [nM] | Activity [19] | EC50 [20] [nM] | Emax (HEK293 [21]) [%] | also measured
COc1ccc(/C=C/C2=NN(CCCCN)C(=O)N(Cc3ccc(-c4ccccc4)cc3)c3cc(C(=O)NCCCc4ccccc4)ccc32)cc1 | > 10000 | 103 | > 10000 | 77 | 0.741 | 18 | 1200 | 3.72 | 20.9 | 98 | 252 |  |  |  |  |  |  |  |  |  | Emax [4]: 54%
CN(Cc1ccccc1)C(=O)c1ccc2c(c1)N(Cc1ccc(-c3ccccc3)cc1)C(=O)N(CCCCN)N=C2CCc1ccc(O)cc1 |  | 152 |  | 71 | 6.76 |  | 933 | 43.7 | 302 | 194 | 70 | 92 | 8.51 | inactive | 91 | 94 | 178 | inactive | 28.2 | 89 | EC50 [22]: 41.7 nM
NCCCCN1N=C(/C=C/c2ccc(O)cc2)c2ccc(C(=O)NCc3ccccc3)cc2N(Cc2ccc(-c3ccccc3)cc2)C1=O |  | 115 | > 10000 | 58 | 1.1 | 30 | 1230 | 13.5 | 10.5 | 275 | 121 | 111 | 7.08 |  |  | 85 |  | inactive | 17 |  | 
CC(C)[C@H](NC(=O)[C@@H]1CSSC[C@H](NC(=O)[C@H](CC(=O)O)NC(=O)[C@@H]2CCCN2C(=O)[C@@H](NC(=O)[C@@H](N)CCC(=O)O)[C@@H](C)O)C(=O)N[C@@H](Cc2ccccc2)C(=O)N[C@@H](Cc2c[nH]c3ccccc23)C(=O)N[C@@H](CCCCN)C(=O)N[C@@H](Cc2ccc(O)cc2)C(=O)N1)C(=O)O [UROTENSIN-II] | 13.8 |  | 18.2 |  |  |  | 20.4 |  | 16.2 |  |  |  |  |  |  |  |  |  |  |  | 
COc1ccc(/C=C/C2=NN(CCCCN)C(=O)N(Cc3ccc(-c4ccccc4)cc3)c3cc(C(=O)NCc4ccccc4)ccc32)cc1 |  | 122 |  | 27 | 0.661 |  | 9.33 | 8.13 | 81.3 | 98 | 85 | 79 | 13.2 | inactive | 63 | 90 | 148 | inactive | 43.7 | 80 | EC50 [22]: 11.7 nM
NCCCCN1N=C(CCc2ccc(O)cc2)c2ccc(C(=O)NCCOc3ccccc3)cc2N(Cc2ccc(-c3ccccc3)cc2)C1=O |  | 215 | > 10000 | 83 | 6.17 |  | 1780 | 16.2 | 288 | 198 | 197 | 81 | 6.92 |  |  | 95 |  | inactive | 34.7 |  | Emax (HEK293 [7]; filed as agonist): 51%
